Test results as given in patent US5789387A (priority 1996, dated 1998).
“Also recorded” adds a separate entry of the source.

Key:
chitin synthase = settings: in words; cited from earlier work
Candida = settings: subcutaneous injections beginning one hour after inoculation; cited from earlier work
plants, fish, or mammals = settings: under reasonable doses; cited from earlier work
[1] = system: Candida albicans strain B311; assay: quantitative recovery of viable yeast from kidneys in rat model of systemic candidiasis, continuous intravenous infusion; format: in vivo; settings: for decrease in viable yeast per gram of tissue / Geometric mean log10 CFU/gm ± S.E.M. (kidney): 96 h; for Geometric mean log10 CFU/gm ± S.E.M. (kidney): inoculum 1×10^6 cfu/rat
Procedure: (§1) Candida albicans strain B311 (originally obtained from H. Hasenclever, National Institutes of Health, Bethesda, Md.) was employed in the following examples. For growth of yeast inocula, frozen culture aliquots were inoculated into 2% glucose, 1% yeast extract broth and grown at 35° C. with shaking until the culture entered the early log phase of growth. Yeast were collected by centrifugation, washed, and adjusted to the appropriate concentration in sterile phosphate-buffered saline (PBS).
A rat model of systemic candidiasis was used to assess the effect of nikkomycin Z in vivo. […] The inoculum and the subsequent drug treatment was administered via an indwelling catheter placed in the jugular vein that was "tunneled" out the back and placed inside a protective, flexible, metal sheath. For both experiments, therapy was initiated 12-14 h after infection with nikkomycin Z (formulated in a vehicle of 2% dimethylsulfoxide (DMSO)/ 98% dextrose (5%)) administered continuously at 330 mg/kg/day; control animals were treated with vehicle. In the first experiment, animals were treated continuously for 72 h. In the second experiment, animals were treated continuously for 96 h. Drug and vehicle were administered continuously at a volume of one ml per hour. At 7 or 9 h after cessation of treatment, respectively, all animals were euthanized for the removal of kidneys, which were cultured for the quantitative recovery of viable yeast. From each animal, the two kidneys were placed into tared, sterile tubes (one tube per animal, i.e., two kidneys per tube) containing ten ml of sterile PBS. The kidneys were then weighed and the tube contents homogenized. Organ homogenates were diluted in serial fashion and cultured on Sabourauds agar plates containing 50 μg/ml chloramphenicol for the quantitative recovery of viable yeast. The plates were incubated overnight at room temperature and colonies enumerated. Calculations were made to determine the log10 cfu's per gram of tissue for each animal.
Experiments similar to those described above were performed to determine the effectiveness of low doses of Nikkomycin Z in reducing the yeast load in organs of infected animals in the rat model of systemic candidiasis. Experimental details such as yeast used, growth conditions, rats used, and methods of inoculation and drug delivery were as described above in Sections 6.1 and 6.2. Inoculum levels were 1×10^6 cfu/rat. Therapy was initiated 14 h after yeast infection and nikkomycin Z was administered continuously at either 33 or 100 mg/kg/day for a total of 96 h; control animals were treated with vehicle. Test solutions were delivered from syringes using infusion pumps; syringes and solutions were changed daily. After cessation of treatment, all animals were euthanized for the removal of kidneys, which were cultured for the quantitative recovery of viable yeast. Organ removal and culture were done as above. Organ homogenates were cultured on Sabourauds agar and incubated overnight for the enumeration of yeasts as above.

C. albicans = settings: subcutaneous, high concentrations; cited from earlier work
[2] = plasma concentration of nikkomycin Z following continuous intravenous administration, HPLC/SPE; format: in vivo, rat (outbred male albino, strain S/A)
Procedure: The experimental animals were outbred male albino rats (strain S/A, Simonsen Laboratories, Gilroy, Calif.), 350-400 g average weight, housed one per cage, fed rodent chow and water ad libitum, and identified by ear tags. Rats receiving continuous intravenous administration of nikkomycin Z were cannulated in the left carotid artery and right jugular vein.
Continuous intravenous administration involved a 2 hour loading dose of 20 mg/kg/hour nikkomycin Z and then an infusion rate of 33 mg/kg/day over 24 hours. The formulation contained 1 mg/ml nikkomycin Z in sterile 5% dextrose. Blood samples of 1 ml were withdrawn at 0, 0.25, 0.5, 1, 2, 4, 6 and 12 h.
Nikkomycin Z was extracted from the plasma samples using solid phase extraction (SPE) columns. The SPE matrix was phenylboronate (PBA) which covalently binds nikkomycin Z at high pH. After washing with 20 mM sodium carbonate/bicarbonate alkaline buffer, nikkomycin Z was eluted from the extraction column with a 20 mM glycine solution at pH 1.2. Following a drying and reconstitution step, nikkomycin Z plasma concentration was determined using reverse phase HPLC. The plasma concentrations of nikkomycin Z derived from the HPLC analysis were plotted against time.

Candida albicans B311 = assay: prevention of mortality in rats infected with lethal doses of Candida albicans, continuous intravenous infusion; format: in vivo, rat infected with Candida albicans B311
Procedure: as §1
Using methods similar to those described above, rats were infected intravenously with a higher inoculum level; i.e., 3.2×10^6 cfu/rat, to induce mortalities. Fourteen hours after infection, treatment by continuous infusion was initiated with nikkomycin Z administered continuously at 330 mg/kg/day; control animals were treated with vehicle. Treatment was continued for 96 h, then animals were held for a total of 28 days for observation of mortalities.
Experiments similar to those described above in this Section were performed to determine the effect of low doses of nikkomycin Z in preventing mortality in animals infected with Candida albicans. Using methods similar to those described above, rats were infected intravenously with 1.05×10^7 cfu/rat of C. albicans B311, a dose that would normally rapidly induce mortalities. The inoculum and the subsequent drug treatment was administered via an indwelling catheter placed in the jugular vein. For the experiment, therapy was initiated 14 h after infection with yeast and nikkomycin Z was administered continuously at 33 or 100 mg/kg/day; control animals were treated with vehicle. All animals were treated continuously for 96 h, with test solutions delivered from syringes using infusion pumps. Syringes and solutions were changed daily. Animals were held for a total of 30 days for observation of mortalities.

Coccidioides immitis = settings: in vitro, literature; cited from earlier work
chitin synthesis = settings: subcutaneous, high concentrations; cited from earlier work
Candida albicans [3] = settings: cited from earlier work
[4] = plasma levels after subcutaneous sustained release gel (PLURONIC F127) or single intravenous administration, HPLC; format: in vivo; settings: rat, single intravenous administration, read-out: mean residence time (MRT), nikkomycin Z total compounds
Candida albicans [5] = settings: oral, 10-14 day period; cited from earlier work
Candida albicans [6] = settings: in vitro; prolonged exposure; literature; cited from earlier work
[7] = bolus intravenous once daily, up to 20 days

In the case of `C[C@@H]([C@H](N)C(=O)N[C@H](C(=O)O)[C@H]1O[C@@H](n2ccc(=O)[nH]c2=O)[C@H](O)[C@@H]1O)[C@H](O)c1ccc(O)cn1` [nikkomycin Z], the “inhibition of chitin synthase” value (chitin synthase) is given as “potent inhibitor”, the “protection against experimental candidiasis” value (Candida) is given as “some protection” and the toxicity (plants, fish, or mammals) is given as “no toxicity against plants, fish, or mammals under reasonable doses”. For the same compound, the “reduction of yeast load in organs (in words)” value ([1]; 33 mg/kg/day continuous infusion, 96 h (4 days)) was “sufficient to dramatically reduce the yeast load in organs of infected animals; also recorded: significantly reduce the yeast organ load”, the “decrease in viable yeast per gram of tissue” value ([1]; 33 mg/kg/day) was “approximately 1 log10 units” and the “Geometric mean log10 CFU/gm ± S.E.M. (kidney)” value ([1]; 33 mg/kg/day) was 4.23 ± 0.15 log10 CFU/gm. For the same compound, the “decrease in viable yeast per gram of tissue” value ([1]; 100 mg/kg/day) was roughly 2 log10 units, the “Geometric mean log10 CFU/gm ± S.E.M. (kidney)” value ([1]; 100 mg/kg/day) was 3.48 ± 0.15 log10 CFU/gm and the “Geometric mean log10 CFU/gm ± S.E.M. (kidney), Exp. 1” value ([1]; Exp. 1, 330 mg/kg/day continuous infusion over 72 h, inoculum 6.2×10^5 cfu/rat) was 3.09 ± .16 log10 CFU/gm. For the same compound, the “Geometric mean log10 CFU/gm ± S.E.M. (kidney), Exp. 2” value ([1]; Exp. 2, 330 mg/kg/day continuous infusion over 96 h, inoculum […]10^6 cfu/rat) was 3.73 ± .05 log10 CFU/gm, the “numbers of yeasts in kidneys / efficacy” value (C. albicans) was “treatment did not result in any reduction in numbers of yeasts” and the “steady state plasma concentration” value ([2]; infusion 33 mg/kg/day intravenous after loading dose, 33 mg/kg/day) was “about 170 ng/ml”. For the same compound, the Tmax ([2]; rat, plasma, 2 hour loading dose of 20 mg/kg/h, then 33 mg/kg/day intravenous) was 60 min, the Cmax ([2]; rat, plasma, 2 hour loading dose of 20 mg/kg/h, then 33 mg/kg/day intravenous, read-out: maximum plasma concentration) was roughly 6600 ng/mL and the survival (Candida albicans B311; 33 mg/kg/day continuous infusion 96 h, inoculum 1.05×10^7 cfu/rat, 30 days observation) was “all animals receiving nikkomycin Z at either 33 or 100 mg/kg/day by continuous infusion survived the entire observation period; also recorded: complete protection of rats against a lethal challenge with Candida albicans”. For the same compound, the survival (Candida albicans B311; 100 mg/kg/day continuous infusion 96 h, inoculum 1.05×10^7 cfu/rat, 30 days observation) was “all animals receiving nikkomycin Z at either 33 or 100 mg/kg/day by continuous infusion survived the entire observation period”, the survival (Candida albicans B311; 330 mg/kg/day continuous infusion 96 h, inoculum 3.2×10^6 cfu/rat, 28 days observation) was “all animals receiving nikkomycin Z by continuous infusion survived the entire observation period” and the “concentration at which C. immitis is rapidly susceptible” value (Coccidioides immitis) was 60 to 100 µM. For the same compound, the “chitin synthesis in vivo” value (chitin synthesis) was “depress chitin synthesis in vivo”, the “efficacy as characterized by others” value (Candida albicans [3]; [7]) was “modest efficacy; also recorded: limited efficacy” and the “mortality of infected mice” value (Candida albicans [3]; [7]) was “a delay in the onset of mortalities in infected mice; also recorded: essentially all mice died shortly after cessation of therapy”. The “promotion of survival and reduction of fungal burden in kidneys (prior studies)” value (Candida albicans [3]; summary of earlier studies with reasonable delay between challenge and administration (oral, iv bolus, sc)) was “at best in a fungistatic fashion with only marginal activity in promoting survival and only limited ability to reduce the fungal burden in the kidneys”, the MRT [4] was 12 min and the survival (Candida albicans [5]) was “animals ultimately succumbed to infection”.
For `NC(=O)OC[C@H](O)[C@@H](O)[C@H](N)C(=O)N[C@H](C(=O)O)[C@H]1O[C@@H](n2cc(C(=O)O)c(=O)[nH]c2=O)[C@H](O)[C@@H]1O` [polyoxin D], the “effect on Candida cells (in words)” value (Candida albicans [6]) is listed as “exhibited a phenomenon called "chaining". Although deformed, these cells were able to survive several replications, though ultimately they became sensitive to osmotic pressures and would lyse” and the “concentration at which C. immitis is rapidly susceptible” value (Coccidioides immitis) is listed as 60 to 100 µM.
